Results reported in PubChem BioAssay (NCI).
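Assay format: 96-well plates, 48-hour exposure. GI50 = concentration required for 50% inhibition of growth. TGI: concentration producing complete growth inhibition.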

How the values were obtained:
Assay in all cases: inhibition of tumour cell growth, NCI panel, 48 h
[1] = system: DU-145 prostate
[2] = system: HCC-2998 colon
[3] = system: SK-MEL-28 melanoma
[4] = system: TK-10 renal
[5] = system: NCI-H23 lung
[6] = system: HCT-15 colon
[7] = system: A549 NSCLC
[8] = system: NCI-H226 lung
[9] = system: OVCAR-5 ovarian
[10] = system: SK-OV-3 ovarian
[11] = system: HOP-92 NSCLC
[12] = system: OVCAR-3 ovarian
[13] = system: SF-295 CNS
[14] = system: RXF 393 renal
[15] = system: UACC-62 melanoma
[16] = system: SF-268 CNS
[17] = system: SNB-75 CNS
[18] = system: BT-549 breast
[19] = system: IGROV1 ovarian
[20] = system: MDA-MB-435
[21] = system: KM12 colon
[22] = system: 786-0 renal
[23] = system: SN12C renal
[24] = system: OVCAR-8 ovarian
[25] = system: LOX IMVI melanoma
[26] = system: UACC-257 melanoma
[27] = system: CAKI-1 renal
[28] = system: MDA-MB-231 breast
[29] = system: T-47D breast
[30] = system: NCI/ADR-RES ovarian
[31] = system: NCI-H522 lung
[32] = system: ACHN renal
[33] = system: SF-539 CNS
[34] = system: HCT-116 colon
[35] = system: COLO 205 colon
[36] = system: A498 renal
[37] = system: HT29 colon
[38] = system: M14 melanoma
[39] = system: PC-3 prostate
[40] = system: SK-MEL-2 melanoma
[41] = system: K-562 leukemia
[42] = system: SNB-19 CNS
[43] = system: MOLT-4 leukemia
[44] = system: RPMI-8226 leukemia
[45] = system: U251 CNS
[46] = system: OVCAR-4 ovarian
[47] = system: HS 578T breast
[48] = system: SW-620 colon
[49] = system: NCI-H460 lung
[50] = system: CCRF-CEM leukemia
[51] = system: UO-31 renal
[52] = system: SK-MEL-5 melanoma
[53] = system: MALME-3M melanoma
[54] = system: MCF7 breast
[55] = system: SR leukemia
[56] = system: HOP-62 NSCLC
[57] = system: EKVX NSCLC
[58] = system: HL-60(TB) leukemia

Structure (SMILES): O=C(N/N=c1/ccoc2cccnc12)N1CCN(c2ncccn2)CC1
- GI50 [1]: 796 nM
- TGI [1]: 13.1 µM
- GI50 [2]: 905 nM
- TGI [2]: 6.59 µM
- GI50 [3]: 996 nM
- TGI [3]: 13.3 µM
- GI50 [4]: 992 nM
- TGI [4]: 8.08 µM
- GI50 [5]: 30.8 nM
- TGI [5]: 16.7 µM
- GI50 [6]: < 10 nM
- TGI [6]: 10.1 µM
- GI50 [7]: 324 nM
- TGI [7]: 9.81 µM
- TGI [8]: 2560 nM
- GI50 [9]: 1500 nM
- TGI [9]: 38.3 µM
- GI50 [10]: 194 nM
- TGI [10]: 4.55 µM
- GI50 [11]: 17 nM
- TGI [11]: 2680 nM
- GI50 [12]: < 10 nM
- TGI [12]: 4.46 µM
- GI50 [13]: 268 nM
- TGI [13]: 6.03 µM
- GI50 [14]: 1090 nM
- TGI [14]: 4.03 µM
- GI50 [15]: 457 nM
- TGI [15]: 5.12 µM
- GI50 [16]: 795 nM
- TGI [16]: 15.1 µM
- GI50 [17]: 1630 nM
- TGI [17]: 9.33 µM
- GI50 [18]: 321 nM
- TGI [18]: 3.37 µM
- GI50 [19]: < 10 nM
- TGI [19]: 7.98 µM
- GI50 [20]: 568 nM
- TGI [20]: 8.24 µM
- GI50 [21]: 371 nM
- TGI [21]: 10.2 µM
- GI50 [22]: 291 nM
- TGI [22]: 2590 nM
- GI50 [23]: 1570 nM
- TGI [23]: 14.8 µM
- GI50 [24]: 31 nM
- TGI [24]: 6.67 µM
- GI50 [25]: < 15.8 nM
- TGI [25]: 5.12 µM
- GI50 [26]: 38.7 nM
- TGI [26]: 5.15 µM
- GI50 [27]: 425 nM
- TGI [27]: 7.64 µM
- GI50 [28]: 278 nM
- TGI [28]: 7.41 µM
- GI50 [29]: < 10 nM
- TGI [29]: 7.85 µM
- GI50 [30]: < 19.3 nM
- TGI [30]: 12.3 µM
- GI50 [31]: 1020 nM
- TGI [31]: 17.2 µM
- GI50 [32]: 14.5 nM
- TGI [32]: 13.2 µM
- GI50 [33]: 1390 nM
- TGI [33]: 9.58 µM
- GI50 [34]: < 10 nM
- TGI [34]: 2250 nM
- GI50 [35]: < 10 nM
- TGI [35]: 7.57 µM
- GI50 [36]: 503 nM
- TGI [36]: 2870 nM
- GI50 [37]: < 10 nM
- TGI [37]: 7.39 µM
- GI50 [38]: 83.1 nM
- TGI [38]: 2590 nM
- GI50 [39]: < 10 nM
- TGI [39]: 6.38 µM
- GI50 [40]: 1110 nM
- TGI [40]: 8.42 µM
- GI50 [41]: < 10 nM
- TGI [41]: 4.82 µM
- GI50 [42]: 804 nM
- TGI [42]: 16.8 µM
- GI50 [43]: < 12.9 nM
- TGI [43]: 8.06 µM
- GI50 [44]: < 10 nM
- TGI [44]: 2040 nM
- GI50 [45]: 77.7 nM
- TGI [45]: 9.15 µM
- GI50 [46]: < 12.9 nM
- TGI [46]: 4.65 µM
- GI50 [47]: 1070 nM
- TGI [47]: 24.5 µM
- GI50 [48]: < 13.1 nM
- TGI [48]: 10.6 µM
- GI50 [49]: 89.6 nM
- TGI [49]: 11.1 µM
- GI50 [50]: < 10 nM
- TGI [50]: > 54.4 µM
- GI50 [51]: 397 nM
- TGI [51]: 3.96 µM
- GI50 [52]: 383 nM
- TGI [52]: 2970 nM
- GI50 [53]: 1170 nM
- TGI [53]: 7.22 µM
- GI50 [54]: < 10 nM
- TGI [54]: 11.9 µM
- GI50 [55]: 153 nM
- TGI [55]: 15.6 µM
- GI50 [56]: 43.6 nM
- TGI [56]: 7.42 µM
- GI50 [57]: 160 nM
- TGI [57]: 10.6 µM
- GI50 [58]: 14.9 nM
- TGI [58]: 1690 nM
